Measurements published in the Kinase Knowledgebase extract (Sharma et al. 2016).

Columns and labels:
EGFR (human) [1] = target: EGFR (human) (UniProt P00533); details: a431
[2] = target: EGFR (human), P00533 [Antiproliferation of H195 Cells Having Overexpressed EGFR T790 Mutant Kinase]
[3] = target: EGFR (human), P00533 [Assessment of EGFR T790 Mutant Kinase Activity]
EGFR (human) [4] = target: EGFR (human) (UniProt P00533)

EGFR (human), P00533 [Antiproliferation of H195 Cells Having Overexpressed EGFR T790 Mutant Kinase], sequence (P00533 whole entry, looked up, change not shown): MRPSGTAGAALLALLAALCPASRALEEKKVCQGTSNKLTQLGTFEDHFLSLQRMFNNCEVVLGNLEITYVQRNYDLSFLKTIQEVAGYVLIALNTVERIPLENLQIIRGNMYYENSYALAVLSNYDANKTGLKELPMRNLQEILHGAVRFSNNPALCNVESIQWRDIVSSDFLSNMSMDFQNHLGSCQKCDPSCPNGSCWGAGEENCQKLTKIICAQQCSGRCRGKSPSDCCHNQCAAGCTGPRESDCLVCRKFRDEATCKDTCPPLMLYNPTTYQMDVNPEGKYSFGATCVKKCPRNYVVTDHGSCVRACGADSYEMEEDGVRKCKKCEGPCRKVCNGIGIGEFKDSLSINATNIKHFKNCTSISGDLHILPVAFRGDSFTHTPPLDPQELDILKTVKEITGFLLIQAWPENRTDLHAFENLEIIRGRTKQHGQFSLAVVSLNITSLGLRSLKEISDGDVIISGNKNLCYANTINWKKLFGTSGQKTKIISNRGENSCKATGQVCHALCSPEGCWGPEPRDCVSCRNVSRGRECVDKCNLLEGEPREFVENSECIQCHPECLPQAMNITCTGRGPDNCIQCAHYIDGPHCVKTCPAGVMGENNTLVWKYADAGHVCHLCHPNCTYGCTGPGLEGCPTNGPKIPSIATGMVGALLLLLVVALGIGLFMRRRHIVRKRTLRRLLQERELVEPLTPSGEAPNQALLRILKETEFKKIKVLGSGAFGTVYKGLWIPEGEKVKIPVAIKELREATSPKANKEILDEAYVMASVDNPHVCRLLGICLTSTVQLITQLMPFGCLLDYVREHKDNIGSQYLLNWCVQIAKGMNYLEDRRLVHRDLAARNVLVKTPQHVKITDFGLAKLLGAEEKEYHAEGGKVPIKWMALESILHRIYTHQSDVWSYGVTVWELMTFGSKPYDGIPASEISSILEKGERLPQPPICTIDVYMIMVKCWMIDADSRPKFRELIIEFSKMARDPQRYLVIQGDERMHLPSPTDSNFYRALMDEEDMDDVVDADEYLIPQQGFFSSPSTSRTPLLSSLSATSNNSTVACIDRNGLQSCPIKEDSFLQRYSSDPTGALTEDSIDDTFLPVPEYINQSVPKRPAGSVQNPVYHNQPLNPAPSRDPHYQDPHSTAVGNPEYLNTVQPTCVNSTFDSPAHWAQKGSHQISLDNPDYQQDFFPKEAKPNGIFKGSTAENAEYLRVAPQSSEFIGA
EGFR (human), sequence (P00533 whole entry, looked up): as the sequence (P00533 whole entry, looked up, change not shown) above
EGFR (human), P00533 [Assessment of EGFR T790 Mutant Kinase Activity], sequence (P00533 whole entry, looked up, change not shown): as above

C=C(NC(C)=O)C(=O)N1CC(Oc2cc3c(Nc4ccc(F)c(Cl)c4F)ncnc3cc2OC)C1
IC50 (EGFR (human) [1]): 3.1 nM | IC50 [2]: 50 nM

C=CC(=O)N1CC[C@H](Oc2cc3c(Nc4ccc(F)c(Cl)c4F)ncnc3cc2OC)C[C@H]1C(=O)NCCS(C)(=O)=O
IC50 (EGFR (human) [1]): 2.2 nM | IC50 [2]: 50.4 nM

C=CC(=O)N1CCC(Oc2cc3c(Nc4cccc(Cl)c4F)ncnc3cc2OC)CC1
IC50 (EGFR (human) [1]): 2 nM | IC50 [2]: 22 nM

C=C(CN(C)C)C(=O)N1CC(Oc2cc3c(Nc4ccc(F)c(Cl)c4F)ncnc3cc2OC)C1
IC50 (EGFR (human) [1]): 41 nM | IC50 [2]: 11 nM

C=CC(=O)N1CCC(Oc2cc3c(Nc4cccc(C=C)c4)ncnc3cc2OC)CC1
IC50 (EGFR (human) [1]): 1.9 nM | IC50 [2]: 27 nM

C=CC(=O)N1CC(Oc2cc3c(Nc4cccc(Cl)c4F)ncnc3cc2OC)C1
IC50 (EGFR (human) [1]): 1.6 nM | IC50 [2]: 9 nM

C=CC(=O)N1CC[C@H](Oc2cc3c(Nc4ccc(F)c(Cl)c4F)ncnc3cc2OC)C[C@H]1C(=O)NCCO
IC50 (EGFR (human) [1]): 5.4 nM | IC50 [2]: 39 nM

C=CC(=O)N1CCC(Oc2cc3c(Nc4ccc(F)c(Cl)c4F)ncnc3cc2OCCOC)CC1
IC50 (EGFR (human) [1]): 4 nM | IC50 [2]: 47 nM

C=C(CN1CCOCC1)C(=O)N1CC(Oc2cc3c(Nc4ccc(F)c(Cl)c4F)ncnc3cc2OC)C1
IC50 (EGFR (human) [1]): 1.5 nM | IC50 [2]: 8 nM

C=CC(=O)N1CCC(Oc2cc3c(Nc4ccc(F)c(Cl)c4F)ncnc3cc2OC)CC1
IC50 [3]: 24 nM

COc1cc2ncnc(Nc3cccc(Cl)c3F)c2cc1OC1CCN(C(=O)CO)CC1
IC50 (EGFR (human) [1]): 39 nM | IC50 (EGFR (human) [4]): 204 nM

C=CC(=O)N1CC[C@@H](Oc2cc3c(Nc4ccc(Cl)c(Cl)c4F)ncnc3cc2OC)C[C@@H]1C(N)=O
IC50 (EGFR (human) [1]): 0.8 nM | IC50 [2]: 1.1 nM

C=CC(=O)N1CC(Oc2cc3c(Nc4ccc(F)c(Cl)c4F)ncnc3cc2OC)C1
IC50 (EGFR (human) [1]): 0.3 nM | IC50 [2]: 1.5 nM

C=CC(=O)N1CC[C@H](Oc2cc3c(N[C@H](C)c4ccccc4)ncnc3cc2OC)C1
IC50 (EGFR (human) [1]): 8 nM | IC50 [2]: 167 nM

C=CC(=O)N1CC[C@H](Oc2ccc3ncnc(Nc4ccc(F)c(Cl)c4F)c3c2)C1
IC50 (EGFR (human) [1]): 5 nM | IC50 [2]: 413 nM

C=CC(=O)N1CC[C@H](Oc2cc3c(Nc4ccc(F)c(Cl)c4F)ncnc3cc2OC)C[C@H]1C(=O)NCCSC
IC50 (EGFR (human) [1]): 2.4 nM | IC50 [2]: 5 nM

C=CC(=O)N1CC(Oc2cc3c(N[C@H](C)c4ccccc4)ncnc3cc2OC)C1
IC50 (EGFR (human) [1]): 7 nM | IC50 [2]: 156 nM

C=CC(=O)N1CCC(Oc2cc3c(Nc4cccc(C)c4)ncnc3cc2OC)CC1
IC50 (EGFR (human) [1]): 1 nM | IC50 [2]: 236 nM

C=CC(=O)N1CC[C@H](Oc2cc3c(Nc4ccc(F)c(Cl)c4F)ncnc3cc2OC)C[C@H]1C(N)=O
IC50 (EGFR (human) [1]): 3 nM | IC50 [2]: 5.2 nM

C=CC(=O)N1CC[C@H](Oc2cc3c(Nc4ccc(F)c(Cl)c4F)ncnc3cc2OC)C1
IC50 (EGFR (human) [1]): 4 nM | IC50 [2]: 80 nM | IC50 (EGFR (human) [4]): 3 nM

C=CC(=O)N1CCC(Oc2cc3c(Nc4cccc(Br)c4)ncnc3cc2OC)CC1
IC50 (EGFR (human) [1]): 1 nM | IC50 [2]: 96 nM

C=CC(=O)N1CC[C@@H](Oc2cc3c(Nc4ccc(F)c(Cl)c4F)ncnc3cc2OC)C[C@@H]1C(=O)NC
IC50 (EGFR (human) [1]): 2.9 nM | IC50 [2]: 2.6 nM

C=CC(=O)N1CC[C@H](Oc2cc3c(Nc4ccc(F)c(Cl)c4F)ncnc3cc2OC)C[C@H]1C(=O)NCCN(C)C
IC50 (EGFR (human) [1]): 5.7 nM | IC50 [2]: 30 nM

C=CC(=O)N1CCC(Oc2cc3c(Nc4ccc(Br)c(C)c4)ncnc3cc2OC)CC1
IC50 (EGFR (human) [1]): 6 nM | IC50 [2]: 48 nM

COc1cc2ncnc(Nc3ccc(F)c(Cl)c3F)c2cc1OC1CN(C(=O)/C=C\Cl)C1
IC50 (EGFR (human) [1]): 2.4 nM | IC50 [2]: 19 nM

C=CC(=O)N1CC[C@@H](Oc2cc3c(Nc4ccc(F)c(Cl)c4F)ncnc3cc2OC)C[C@@H]1C(N)=O
IC50 (EGFR (human) [1]): 0.8 nM | IC50 [2]: 5.2 nM

C=CC(=O)N1CCC(Oc2cc3c(Nc4cccc(SC)c4)ncnc3cc2OC)CC1
IC50 (EGFR (human) [1]): 305 nM

C=CC(=O)N1CC[C@H](Oc2cc3c(Nc4ccc(F)c(Cl)c4F)ncnc3cc2OC)C[C@H]1C(=O)NCCOC
IC50 (EGFR (human) [1]): 3.4 nM | IC50 [2]: 11 nM

C=C(NC(C)=O)C(=O)N1CCC(Oc2cc3c(Nc4ccc(Cl)c(Cl)c4F)ncnc3cc2OC)CC1
IC50 (EGFR (human) [1]): 50 nM

COc1cc2ncnc(Nc3ccc(Cl)c(Cl)c3F)c2cc1OC1CCN(C(=O)/C=C/C(=O)O)CC1
IC50 (EGFR (human) [1]): 516 nM

C=CC(=O)N1CCC(Oc2cc3c(Nc4ccc(F)c(F)c4F)ncnc3cc2OC)CC1
IC50 (EGFR (human) [1]): 43 nM

C=CC(=O)N1CC[C@H](Oc2cc3c(Nc4ccc(F)c(Cl)c4F)ncnc3cc2OC)C[C@H]1C(=O)NCCN1CCOCC1
IC50 (EGFR (human) [1]): 8.3 nM

C=CC(=O)N1CC[C@H](Oc2cc3c(Nc4ccc(Br)c(Cl)c4F)ncnc3cc2OC)C1
IC50 (EGFR (human) [1]): 5 nM | IC50 [2]: 55 nM

C=CC(=O)N1CCC(Oc2cc3c(Nc4ccc(F)c(Cl)c4)ncnc3cc2OC)CC1
IC50 (EGFR (human) [1]): 17 nM | IC50 [2]: 16 nM

C=CC(=O)N1CC(Oc2cc3c(Nc4cccc(Cl)c4)ncnc3cc2OC)C1
IC50 (EGFR (human) [1]): 1.6 nM | IC50 [2]: 17.7 nM

C=CC(=O)N1CC[C@@H](Oc2cc3c(Nc4ccc(F)c(Cl)c4F)ncnc3cc2OC)C[C@@H]1C(=O)OC
IC50 (EGFR (human) [1]): 0.7 nM | IC50 [2]: 5.4 nM

COc1cc2ncnc(Nc3ccc(Cl)c(Cl)c3F)c2cc1OC1CCN(C(=O)/C=C\Cl)CC1
IC50 (EGFR (human) [1]): 14 nM
